The values that follow come from patent US20010018445A1, “Pharmaceutical composition for the treatment of hepatocellular carcinoma” (TTY BIOPHARM COMPANY LIMITED, priority 2000, published 2001).

The subject of data set [1] is basic fibroblast growth factor-induced angiogenesis. To be noted: Anti-Cancer Drugs, 1996, 7, p.339-343; cited from earlier work.
The subject of data set [2] is tumor necrotic factor-alpha (TNF-I). Particulars: Journal of Infectious Diseases, 1993, 168, p. 408-414; cited from earlier work.
Data set [3] concerns hepatocellular carcinoma. Description: Thalidomide treatment of two patients with metastatic and locally advanced hepatocellular carcinoma (Example 3). Type of data set: in vivo, human. To be noted: thalidomide 100 mg twice daily. The method, then: Thalidomide was administered 100 mg twice daily. They were subjected to serum alpha-fetoprotein test every 2-4 weeks and computed tomography or magnetic resonance image examination every 4-8 weeks.

The test system of data set [4] is hepatocellular carcinoma. Type of data set: in vivo, human. On the procedure: FIGS. 1-4 show computerized abdominal tomography of a patient, before and after, treatment with thalidomide. […] The serum level of alpha-fetoprotein in the patient is 4335 μg/ml. […] The massive type index lesion at the left hepatic lobe shown in FIG. 3 has been reduced to the size of 3 cm×3 cm. The serum level of alpha-fetoprotein in the patient is 1501 μg/ml. In addition, the scan show the occurrence of ascitic fluid.
A patient weighted 55 kg with medical history of hepatitis C was diagnosed with hepatocellular carcinoma in December 1998 and treated with transcatheter arterial chemoembolization. They were treated with transcatheter arterial chemoembolization again in March and June 1999. According to the computerized abdominal tomography and gastrointestinal track barium enema, hepatocellular carcinoma invasion of the right colon and duodenum was doubted. The patient was treated with radiation on the right liver lobe during July to September 1999. After one-month of treatment, the serum level of alpha-fetoprotein in the patient increased from 105 μg/ml, before treatment, to 535 μg/ml. […] The patient was treated with a forth transcatheter arterial chemoembolization. The serum level of alpha-fetoprotein in the patient was increased to 1572 μg/ml.
The serum level of alpha-fetoprotein in the patient was up to 4335 μg/ml. The liver function exacerbated that the total bilirubin was […], GOT/GPT was 253/115 IU and alkaline phosphase (ALP) was 239 unit/l. […] A capsule containing 100 mg of thalidomide was orally administered to the patient twice daily during the thalidomide treatment. […] However, ascitic fluid was found. The abdominal paracentesis evidenced that ascitic fluid was caused by spontaneous bacterial peritonitis. […] The patient was then administered with antibiotics for the treatment of spontaneous bacterial peritonitis. The patient was still treated with thalidomide to the present.

For another data set, the system named is angiogenesis. To be noted: U.S. Pat. Nos. 5,593,990 and 5,629,327; cited from earlier work.
The subject of data set [5] is hepatocellular carcinoma. Description: Clinical observation of thalidomide in hepatocellular carcinoma, summary statement on side effects. The data set is classed as in vivo, human. To be noted: patients with metastatic hepatocellular carcinoma or where local treatment has failed. The source says: The subject invention utilizes thalidomide to treat metastatic hepatocellular carcinoma and hepatocellular carcinoma, where local treatment has failed.
The therapeutic efficacy of the pharmaceutical composition of the subject invention comprising thalidomide on the treatment of hepatocellular carcinoma has been supported by clinical observation as illustrated in the following examples.

For data set [6] the following is noted: in water, methanol, ethanol or acetone; cited from earlier work.
For data set [7] the following is noted: women who took thalidomide in the first trimester of pregnancy; cited from earlier work.
[8] abbreviates: after treatment with thalidomide.

Consider `O=C1CCC(N2C(=O)c3ccccc3C2=O)C(=O)N1` (stereo not shown) [thalidomide, 2-(2,6-dioxo-3-piperidinyl)-1H-isoindolle-1,3(2H)-dione], for which the “inhibition of basic fibroblast growth factor-induced angiogenesis” value in data set [1] is on record as “could effectively inhibit”. The “inhibition of tumor necrotic factor-alpha (TNF-I)” value in data set [2] is listed as “could effectively inhibit”. Moreover, the “serum alpha-fetoprotein level (FIGS. 6 and 7)” value in the data set with hepatocellular carcinoma [3] was “significant reduced”. The “hepatocellular carcinoma of the two liver lobes on follow-up MRI” value in the data set with hepatocellular carcinoma [4] (after four weeks of treatment) was “significantly remitted”. Moreover, in the data set on hepatocellular carcinoma [4] (setting [8]), the “most diffused hepatocellular carcinoma infiltrating left and right hepatic lobes (computerized abdominal tomography)” value is “disappear”; the “variation of the serum level of alpha-fetoprotein (FIG. 5)” value is on record as “significantly decreased”. In addition, the “right upper quadrant tenderness” value in the data set on hepatocellular carcinoma [4] (after two weeks of treatment, 100 mg orally twice daily) is “significantly relieved”. Also, the “alkaline phosphase (ALP)” value in the data set with hepatocellular carcinoma [4] (human, in vivo) worked out at 233 unit/l. The “serum level of alpha-fetoprotein” value in the data set on hepatocellular carcinoma [4] (one patient, 100 mg thalidomide capsule orally twice daily, after four weeks, 4335 μg/ml before treatment) worked out at 1501 µg/mL. Moreover, the inhibition of angiogenesis entry in the data set on angiogenesis is “could effectively inhibit”. Further, in the data set with hepatocellular carcinoma [5], the “side effects, such as arrest of bone marrow or hepatotoxicity” value is “without significant side effects”. For the same molecule, in data set [6], the solubility entry is recorded as “sparingly soluble”. Besides, the teratogenic effect result in data set [7] is “would deliver terata, such as phocomelia”.
